In patent US20230312522A1, “CYP46A1 INHIBITORS AND METHODS OF USE THEREOF” (Sage Therapeutics, Inc., priority 2020, published 2023):

target: CYP46A1 (Homo sapiens (Human), UniProt Q9Y6A2); test: CYP46A1 enzyme assay (testosterone substrate, HPLC-MS); format: biochemical; settings: CYP46A1 5 μM, Testosterone 10 mM, NADPH-generating system, 37° C., 15 minutes
Procedure: Briefly, in a 384-well plate format, 10 μL per well of an enzyme-substrate mixture of CYP46A1 (5 μM final concentration) and Testosterone ([…] final concentration) were dispensed to wells containing test compound. For CYP46A1 titration, 5 μL per well of serially diluted CYP46A1 (concentrations including 10 μM, 5 μM, and 2.5 μM) and Testosterone (concentration of […]) were dispensed. For Testosterone titration, 5 μL per well of serially diluted Testosterone (concentrations including 10 μM, 5 μM, and 2.5 μM) and CYP46A1 (concentration of 5 μM) were dispensed. The plates were centrifuged at 1000 rpm for 30 seconds, and then sealed and incubated at 37° C. for 30 minutes. The plate was removed from the incubator, and then 10 μL per well of NADPH-generating system were dispensed to initiate the reaction. The plates were incubated at 37° C. for 15 minutes, added with 80 μL per well of 100% methanol consisting 1 ng/ml diclofenac as internal standard, and then transferred for HPLC-MS.
In Table 2, A indicates a CYP46A1 IC50<0.1 μM, B indicates a CYP46A1 IC50 (μM) of 0.1 μM to <1.0 μM, and C indicates a CYP46A1 IC50 (μM) of ≥1.0 μM

Sequence of CYP46A1 (Q9Y6A2 whole entry, species assumed): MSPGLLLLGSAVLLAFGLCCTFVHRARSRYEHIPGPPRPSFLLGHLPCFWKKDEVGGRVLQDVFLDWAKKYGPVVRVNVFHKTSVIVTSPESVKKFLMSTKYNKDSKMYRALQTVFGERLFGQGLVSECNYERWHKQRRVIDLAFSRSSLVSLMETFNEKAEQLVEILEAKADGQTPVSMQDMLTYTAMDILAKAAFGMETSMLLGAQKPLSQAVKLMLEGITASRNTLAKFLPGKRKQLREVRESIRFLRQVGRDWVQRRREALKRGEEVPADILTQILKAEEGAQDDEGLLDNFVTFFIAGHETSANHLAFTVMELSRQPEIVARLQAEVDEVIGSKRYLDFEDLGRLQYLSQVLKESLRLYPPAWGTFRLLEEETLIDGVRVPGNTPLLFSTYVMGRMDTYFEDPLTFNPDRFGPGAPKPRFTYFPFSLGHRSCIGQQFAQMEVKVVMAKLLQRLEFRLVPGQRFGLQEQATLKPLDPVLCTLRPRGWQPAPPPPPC

| Structure (SMILES) | IC50 [nM] |
| --- | --- |
| O=C(c1cccnc1-c1ccncn1)N1CCC(F)(Cc2ccc(F)cc2)CC1 [Compound 1, (4-fluoro-4-(4-fluorobenzyl)piperidin-1-yl)(2-(pyrimidin-4-yl)pyridin-3-yl)methanone] | < 100 |
| O=C(c1cccnc1-c1ccncn1)N1CCC(F)(CC2CCOCC2)CC1 [Compound 2, (4-fluoro-4-((tetrahydro-2H-pyran-4-yl)methyl)piperidin-1-yl)(2-(pyrimidin-4-yl)pyridin-3-yl)methanone] | ≥ 1000 |
| O=C(c1cccnc1-c1ccncc1)N1CCC(F)(CC2CCOCC2)CC1 [Compound 3] | ≥ 1000 |
| O=C(c1cccnc1-c1ccncn1)N1CCC(F)(Cc2ccc(C(F)(F)F)cc2)CC1 [Compound 4, (4-fluoro-4-(4-(trifluoromethyl)benzyl)piperidin-1-yl)(2-(pyrimidin-4-yl)pyridin-3-yl)methanone] | < 100 |
| O=C(c1cccnc1-c1ccncn1)N1CCC(F)(Cc2ccccn2)CC1 [Compound 5, (4-fluoro-4-(pyridin-2-ylmethyl)piperidin-1-yl)(2-(pyrimidin-4-yl)pyridin-3-yl)methanone] | < 100 |
| N#Cc1ccc(CC2(F)CCN(C(=O)c3cccnc3-c3ccncn3)CC2)cc1 [Compound 6, 4-((4-fluoro-1-(2-(pyrimidin-4-yl)nicotinoyl)piperidin-4-yl)methyl)benzonitrile] | < 100 |
| O=C(c1cccnc1-c1ccncn1)N1CCC(F)(Cc2ccc(C3CC3)cn2)CC1 [Compound 7, (4-((5-cyclopropylpyridin-2-yl)methyl)-4-fluoropiperidin-1-yl)(2-(pyrimidin-4-yl)pyridin-3-yl)methanone] | < 100 |
| N#Cc1ccc(CC2(F)CCN(C(=O)c3cccnc3-c3ccncn3)CC2)c(F)c1 [Compound 9, 3-fluoro-4-((4-fluoro-1-(2-(pyrimidin-4-yl)nicotinoyl)piperidin-4-yl)methyl)benzonitrile] | < 100 |
| O=C(c1cccnc1-c1ccncn1)N1CCC(F)(Cc2ccc(F)cn2)CC1 [Compound 10, (4-fluoro-4-((5-fluoropyridin-2-yl)methyl)piperidin-1-yl)(2-(pyrimidin-4-yl)pyridin-3-yl)methanone] | 100 to 1000 |
| N#Cc1cc(F)c(CC2(F)CCN(C(=O)c3cccnc3-c3ccncn3)CC2)c(F)c1 [Compound 11, 3,5-difluoro-4-((4-fluoro-1-(2-(pyrimidin-4-yl)nicotinoyl)piperidin-4-yl)methyl)benzonitrile] | < 100 |
| O=C(c1cccnc1-c1ccncn1)N1CCC(F)(C(=O)c2ccc(C(F)(F)F)cc2)CC1 [Compound 12, (4-fluoro-1-(2-(pyrimidin-4-yl)nicotinoyl)piperidin-4-yl)(4-(trifluoromethyl)phenyl)methanone] | 100 to 1000 |
| N#Cc1ccc([C@H](O)C2(F)CCN(C(=O)c3cccnc3-c3ccncn3)CC2)c(F)c1 [Compound 15] | < 100 |
| N#Cc1ccc([C@@H](O)C2(F)CCN(C(=O)c3cccnc3-c3ccncn3)CC2)c(F)c1 [Compound 16] | 100 to 1000 |
| N#Cc1ccc(C(=O)C2(F)CCN(C(=O)c3cccnc3-c3ccncn3)CC2)c(F)c1 [Compound 17, 3-fluoro-4-(4-fluoro-1-(2-(pyrimidin-4-yl)nicotinoyl)piperidine-4-carbonyl)benzonitrile] | 100 to 1000 |
| N#Cc1ccc(CC2(F)CCN(C(=O)c3cccnc3-c3ccncn3)CC2)nc1 [Compound 21, 6-((4-fluoro-1-(2-(pyrimidin-4-yl)nicotinoyl)piperidin-4-yl)methyl)nicotinonitrile] | 100 to 1000 |
| O=C(c1cccnc1-c1ccncn1)N1CCC(F)(Cc2cc(C(F)(F)F)ccn2)CC1 [Compound 25, (4-fluoro-4-((4-(trifluoromethyl)pyridin-2-yl)methyl)piperidin-1-yl)(2-(pyrimidin-4-yl)pyridin-3-yl)methanone] | 100 to 1000 |
| O=C(c1cccnc1-c1ccncn1)N1CCC(F)(Cc2ccc(OC(F)(F)F)cn2)CC1 [Compound 27, (4-fluoro-4-((5-(trifluoromethoxy)pyridin-2-yl)methyl)piperidin-1-yl)(2-(pyrimidin-4-yl)pyridin-3-yl)methanone] | 100 to 1000 |
| O=C(c1cccnc1-c1ccncn1)N1CCC(F)(Cc2ncc(Cl)cc2F)CC1 [Compound 30, (4-((5-chloro-3-fluoropyridin-2-yl)methyl)-4-fluoropiperidin-1-yl)(2-(pyrimidin-4-yl)pyridin-3-yl)methanone] | 100 to 1000 |
| O=C(c1cccnc1-c1ccncn1)N1CCC(F)(Cc2ccc(C(F)(F)F)nn2)CC1 [Compound 36, (4-fluoro-4-((6-(trifluoromethyl)pyridazin-3-yl)methyl)piperidin-1-yl)(2-(pyrimidin-4-yl)pyridin-3-yl)methanone] | 100 to 1000 |
| O=C(c1cccnc1-c1ccncc1)N1CCC(F)(Cc2ccc(C(F)(F)F)nn2)CC1 [Compound 37, [2,4′-bipyridin]-3-yl(4-fluoro-4-((6-(trifluoromethyl)pyridazin-3-yl)methyl)piperidin-1-yl)methanone] | 100 to 1000 |
| O=C(c1cccnc1-c1ccncn1)N1CCC(F)(Cc2cnc(C(F)(F)F)cn2)CC1 [Compound 40, (4-fluoro-4-((5-(trifluoromethyl)pyrazin-2-yl)methyl)piperidin-1-yl)(2-(pyrimidin-4-yl)pyridin-3-yl)methanone] | 100 to 1000 |
| O=C(c1cccnc1-c1ccncn1)N1CCC(F)(Cc2cnc(C(F)(F)F)nc2)CC1 [Compound 41, (4-fluoro-4-((2-(trifluoromethyl)pyrimidin-5-yl)methyl)piperidin-1-yl)(2-(pyrimidin-4-yl)pyridin-3-yl)methanone] | 100 to 1000 |
| Cc1ccc(CC2(F)CCN(C(=O)c3cccnc3-c3ccncn3)CC2)nc1 [Compound 42, (4-fluoro-4-((5-methylpyridin-2-yl)methyl)piperidin-1-yl)(2-(pyrimidin-4-yl)pyridin-3-yl)methanone] | 100 to 1000 |
| O=C(c1cccnc1-c1ccncn1)N1CCC(F)(Cc2cnccn2)CC1 [Compound 44, (4-fluoro-4-(pyrazin-2-ylmethyl)piperidin-1-yl)(2-(pyrimidin-4-yl)pyridin-3-yl)methanone] | 100 to 1000 |
| O=C(c1cccnc1-c1ccncn1)N1CCC(F)(Cc2cccnn2)CC1 [Compound 48, (4-fluoro-4-(pyridazin-3-ylmethyl)piperidin-1-yl)(2-(pyrimidin-4-yl)pyridin-3-yl)methanone] | 100 to 1000 |
| O=C(c1cccnc1-c1ccncc1)N1CCC(F)(Cc2cccnn2)CC1 [Compound 49, [2,4′-bipyridin]-3-yl(4-fluoro-4-(pyridazin-3-ylmethyl)piperidin-1-yl)methanone] | 100 to 1000 |
| Cc1cnc(CC2(F)CCN(C(=O)c3cccnc3-c3ccncn3)CC2)cn1 [Compound 50, (4-fluoro-4-((5-methylpyrazin-2-yl)methyl)piperidin-1-yl)(2-(pyrimidin-4-yl)pyridin-3-yl)methanone] | 100 to 1000 |
| Cc1ccc(CC2(F)CCN(C(=O)c3cccnc3-c3ccncn3)CC2)cn1 [Compound 53] | 100 to 1000 |
